Assay results from patent US20230137943A1, “PHOTOPROXIMITY PROFILING OF PROTEIN-PROTEIN INTERACTIONS IN CELLS” (The University of Chicago, priority 2019, published 2023).

Assays:
[1] = biological target: T1, recombinant SNAP-Tag protein (Homo sapiens, UniProt P16455, A127T/A154D/C150Q/C62A/E30R/G131K/G132T/G153L/K125A/K32I/L33F/M134L/N157G/Q115S/Q116H/R128A/R135S/S151G/S152D/S159E); assay: In vitro photocleavage assay (in-gel fluorescence); type: biochemical; conditions: recombinant SNAP-Tag labeled with probe, 0-10 minutes irradiation
T1 construct: His6 (N)
T1 sequence (P16455 1-182 E30R/K32I/L33F/C62A/Q115S/Q116H/K125A/A127T/R128A/G131K/G132T/M134L/R135S/C150Q/S151G/S152D/G153L/A154D/N157G/S159E): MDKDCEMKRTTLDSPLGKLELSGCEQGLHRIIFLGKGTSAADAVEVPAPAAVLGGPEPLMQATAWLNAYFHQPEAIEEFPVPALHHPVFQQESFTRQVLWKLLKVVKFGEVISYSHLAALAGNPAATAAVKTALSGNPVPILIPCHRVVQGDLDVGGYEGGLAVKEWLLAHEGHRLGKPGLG
Description: In vitro photocleavage assay: Recombinant purified His6-SNAP-Tag (20 μg) was incubated in 200 μL DPBS containing 5 μM PP1 for 1 hour at 37° C. Afterward, the reaction was divided into six 30 μL aliquots, placed on ice, and irradiated with 365 nm light using a SPECTROLINKER™ XL-1500a UV crosslinker (Spectroline, Spectronics, Corporation, Westbury, N.Y., United States of America). Samples were successively removed from irradiation after 0, 0.5, 1, 2.5, 5, 10 minutes of irradiation, diluted with loading buffer, and run on SDS-PAGE gel. Photocleavage was judged by in-gel fluorescence visualized using a ChemiDoc imaging system (Bio-Rad Laboratories, Hercules, Calif., United States of America) scanning for fluorescein.
A first generation P3 chemical proteomic method was designed to facilitate several activities, including: 1) specific probe labeling of POIs in live cells; 2) spatial and temporal control of probe photoactivation and proximal labeling; 3) subsequent enrichment and identification of labeled proteins after cell lysis. […] The BnG targeting element is connected to dual photoreactive elements, a central substituted nitroveratryl carbamate, and a tethered diazirine, which upon irradiation with 365 nm light will simultaneously trigger cleavage and diffusion of the probe away from the SNAP-Tag-POI, as well as unmasking of a highly reactive carbene, respectively. […]

[2] = biological target: T2, SNAP-FLAG/α-FLAG antibody complex (Homo sapiens, UniProt P16455, A127T/A154D/C150Q/C62A/E30R/G131K/G132T/G153L/K125A/K32I/L33F/M134L/N157G/Q115S/Q116H/R128A/R135S/S151G/S152D/S159E); assay: Proximity-labeling assay in cell lysate (anti-biotin / anti-mouse Western blot); type: biochemical; conditions: 500 nM probe
T2 construct: host or cells: clarified lysate of HEK293T cells transiently or stably expressing SnapFlag
T2 sequence (P16455 1-182 E30R/K32I/L33F/C62A/Q115S/Q116H/K125A/A127T/R128A/G131K/G132T/M134L/R135S/C150Q/S151G/S152D/G153L/A154D/N157G/S159E limits assumed): T1 sequence (P16455 1-182 E30R/K32I/L33F/C62A/Q115S/Q116H/K125A/A127T/R128A/G131K/G132T/M134L/R135S/C150Q/S151G/S152D/G153L/A154D/N157G/S159E)
Description: Proximity-labeling assays: Clarified cell lysate from HEK293T cells either transiently (see FIG. 4B) or stably (see FIG. 4C) expressing SNAP-Tag (NEB #N9183S; New England Biolabs, Ipswich, Mass., United States of America) or SnapFlag was normalized to 1 mg/mL and 250 μL aliquots incubated in a microcentrifuge tube with either 500 nM of PP1. PP2, or DMSO for 1 hour at 37° C. Washed anti-FLAG M2 affinity gel, 40 μL of a 50% slurry, was transferred to each reaction in 750 μL of DPBS and the resultant suspension left to rotate overnight at 4° C. (Sigma #A2220; Sigma-Aldrich, St. Louis, Mo., United States of America). Samples were then spun down at 4000×g, supernatant aspirated, and the resin washed with 1M urea in DPBS (1 mL×8) followed by DPBS (1 mL). After being resuspended in 100 μL of DPBS, the samples were placed on ice where they were irradiated with 365 nm light for 10 minutes (SPECTROLINKER™ XL-1500a UV crosslinker, Spectronics Corporation, Westbury, N.Y., United States of America). Once irradiated, the beads were washed with 100 mM pH 3.5 glycine buffer (100 μL×2) and DPBS (1 mL). To elute the remaining SNAP-FLAG and resin-bound FLAG-antibody the beads were boiled for 5 minutes at 95° C. in 20 μL 4×-loading buffer containing 8% SDS and 400 mM DTT. After which, 60 μL of DPBS was added and the suspension boiled at 95° C. for an additional 5 minutes. The samples were then run on SDS-PAGE gel and transferred to nitrocellulose where they were stained with anti-mouse IR dye (Li-cor #926-68072; Li-cor Biosciences, Lincoln, Nebr., United States of America) and streptavidin IR dye (Li-cor #926-32230; Li-cor Biosciences, Lincoln, Nebr., United States of America). Bands corresponding to biotinylated proteins and the FLAG antibody were visualized using an Odyssey infrared imager (Li-cor Biosciences, Lincoln, Nebr., United States of America).
To study if proximal protein interactors could be labeled in response to the dual photoactivation of PP1 in vitro, the interaction between SNAP-FLAG protein and an α-FLAG monoclonal antibody (mAb) was examined in cell lysate. In this assay, proximal biotinylation of both heavy and light chains of the antibody was expected, as well as self-labeling of the SNAP-FLAG protein, under conditions where the protein complex is formed and the PP1 probe is photoactivated. To test this hypothesis in the presence and absence of the protein-protein complex, SNAP protein that contained or lacked the FLAG epitope was treated with PP1 probe, followed by incubation with α-FLAG mAb, bead-based pulldown of the complexes, and subsequent photoactivation. […] The requirement for photoactivation of PP1, as well as a related probe PP2 (see FIG. 6) was tested by forming the SNAP-FLAG/α-FLAG complexes, and then comparing protein biotinylation with or without irradiation.
To study if proximal protein interactors could be labeled in response to the dual photoactivation of AC1 (see FIG. 12A) in vitro, the interaction between SNAP-FLAG protein and an α-FLAG monoclonal antibody (mAb) was examined in cell lysate. Briefly, 250 μL aliquots of cell lysate (HEK293T, SNAP-Flag) was incubated in a microcentrifuge tube with either 500 nM of photoprobe, or DMSO for 1 hour at 37° C. Washed anti-FLAG M2 affinity gel, 40 μL of a 50% slurry, was transferred to each reaction in 750 μL of DPBS and the resultant suspension left to rotate overnight at 4° C. (Sigma #A2220; Sigma-Aldrich, St. Louis, Mo., United States of America). Samples were then spun down at 4000×g, supernatant aspirated, and the resin washed with 1M urea in DPBS (1 mL×8) followed by DPBS (1 mL). After being resuspended in 250 μL of DPBS, the +UV samples were placed on ice where they were irradiated with 365 nm light for 10 minutes (SPECTROLINKER™ XL-1500a UV crosslinker, Spectronics Corporation, Westbury, N.Y., United States of America). Once irradiated, the beads were washed with 1 M Urea (1 mL×2) and DPBS (1 mL×2). […]

| Proximal labeling of heavy/light chain without irradiation ([2]; not exposed to 365 nm light (FIG. 4C)) | SMILES | Fluorescence of labeled protein after irradiation at 365 nm (photocleavage) [1] | Proximal labeling of heavy and light chains upon irradiation ([2]; 365 nm light 10 minutes (FIG. 4C, FIG. 12B)) |
| --- | --- | --- | --- |
|  | COc1cc(C(C)OC(=O)NCCNC(=S)Nc2ccc3c(c2)C2(OC3=O)c3ccc(O)cc3Oc3cc(O)ccc32)c([N+](=O)[O-])cc1OCCCC(=O)NCc1ccc(COc2nc(N)nc3[nH]cnc23)cc1 (stereo not drawn) [PF-BnG] | complete loss of fluorescence within minutes |  |
| No proximal labeling | COc1cc(C(C)OC(=O)NCCCCC(NC(=O)CCC2(C)N=N2)C(=O)NCCNC(=O)CCCCC2SCC3NC(=O)NC32)c([N+](=O)[O-])cc1OCCCC(=O)NCCOCCOC(=O)NCc1ccc(COc2nc(N)nc3[nH]cnc23)cc1 (stereo not drawn) [PP2] |  | a discrete biotinylated band was formed on both heavy and light chains |
